Data reported in patent US7638509B2, “Diene compounds and formulations” (priority 2003, dated 2009).

How the values were obtained:
LNCaP cells = experiment: LNCaP cell growth, cell count by hemocytometer; assay type: cell-based, human
Method: The mean±SD of three separate experiments was determined. […] Total cell number was counted by hemocytometer. The mean of at least three determinations was determined.

[1] = biological target: T1, progesterone receptor (PR) (Homo sapiens, UniProt P06401); experiment: Steroid hormone specificity, PR/MMTV-Luc in PC-3 cells; assay type: cell-based; conditions: PC-3, PR/MMTV-Luc, ADEK at 0.01 mM, 0.1 mM and 1.0 mM, 24 h
T1 construct: expressed in transfected cells; host or cells: PC-3
T1 sequence (P06401 1-933): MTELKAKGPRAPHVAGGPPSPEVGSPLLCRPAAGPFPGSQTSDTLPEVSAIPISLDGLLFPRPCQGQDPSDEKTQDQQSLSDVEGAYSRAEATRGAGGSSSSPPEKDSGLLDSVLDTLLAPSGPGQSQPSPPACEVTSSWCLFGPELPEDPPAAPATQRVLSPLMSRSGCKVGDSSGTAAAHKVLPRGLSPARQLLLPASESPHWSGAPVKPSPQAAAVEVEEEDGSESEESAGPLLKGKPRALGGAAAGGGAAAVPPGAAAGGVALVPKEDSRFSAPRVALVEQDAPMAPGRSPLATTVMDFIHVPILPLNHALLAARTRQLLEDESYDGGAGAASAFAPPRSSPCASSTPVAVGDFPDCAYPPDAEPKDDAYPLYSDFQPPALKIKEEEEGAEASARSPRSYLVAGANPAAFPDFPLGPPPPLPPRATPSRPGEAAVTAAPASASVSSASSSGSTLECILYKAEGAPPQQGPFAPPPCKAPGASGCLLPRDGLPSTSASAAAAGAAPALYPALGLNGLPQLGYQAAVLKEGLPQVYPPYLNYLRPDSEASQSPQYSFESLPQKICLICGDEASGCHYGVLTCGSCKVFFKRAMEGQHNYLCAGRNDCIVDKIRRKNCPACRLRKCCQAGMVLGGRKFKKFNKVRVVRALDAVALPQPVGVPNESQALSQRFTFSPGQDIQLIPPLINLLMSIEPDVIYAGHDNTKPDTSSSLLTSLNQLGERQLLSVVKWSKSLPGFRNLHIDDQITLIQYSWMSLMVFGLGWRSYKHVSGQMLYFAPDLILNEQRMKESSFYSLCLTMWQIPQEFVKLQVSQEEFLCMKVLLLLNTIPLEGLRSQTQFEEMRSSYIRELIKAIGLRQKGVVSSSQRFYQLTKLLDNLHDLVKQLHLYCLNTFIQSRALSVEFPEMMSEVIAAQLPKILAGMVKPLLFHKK
Method: Cell Culture, Transfection, and Reporter Gene Assay. The human prostate cancer cell lines, LNCaP, PC-3, and DU145, and non-prostate cancer cell line COS-1 were maintained in RPMI or Dulbecco's modified Eagle's medium (DMEM) (Life Technologies) supplemented with 10% fetal bovine serum (FBS). Transfections and luciferase (Luc) assays were performed as previously described (Miyamoto, H., Yeh, S., Wilding, G. & Chang, C. (1998) Proc. Natl. Acad. Sci. USA 95, 7379-7384; Miyamoto, H., Rahman, M., Takatera, H., Kang, H.-Y., Yeh, S., Chang, H.-C., Nishimura, K., Fujimoto, N. & Chang, C. (2002) J. Biol. Chem. 277, 4609-4617). Briefly, cells seeded to reach a density of 50-60% confluence in 12 well tissue culture plates were transfected with 1.5 μg of DNA according to “SuperFect transfection” instructions (Qiagen). […] The Luc activity was determined using a Dual-Luciferase Reporter Assay System (Promega) and luminometer.
Steroid Hormone Specificity of ADEK. To characterize the steroid hormone activity of ADEK, PC-3 cells were transfected with steroid receptor/reporter (progesterone receptor (PR)/MMTV-Luc, glucocorticoid receptor (GR)/MMTV-Luc, or estrogen receptor (ER)/ERE-Luc) and analyzed for expression of the Luc reporter gene. […] The Luc activity was measured relative to that of ETOH treatment (set as 1-fold). […]

wild-type AR = biological target: T2, wild-type AR (Homo sapiens, UniProt P10275); experiment: Adiol-induced AR transcription, MMTV-Luc in PC-3 cells with pSG5-AR; assay type: cell-based; parameters: expressed in transfected cells; host or cells: PC-3; conditions: PC-3, 2.5 nM Adiol, compound at 1 μM
T2 sequence (P10275 1-920): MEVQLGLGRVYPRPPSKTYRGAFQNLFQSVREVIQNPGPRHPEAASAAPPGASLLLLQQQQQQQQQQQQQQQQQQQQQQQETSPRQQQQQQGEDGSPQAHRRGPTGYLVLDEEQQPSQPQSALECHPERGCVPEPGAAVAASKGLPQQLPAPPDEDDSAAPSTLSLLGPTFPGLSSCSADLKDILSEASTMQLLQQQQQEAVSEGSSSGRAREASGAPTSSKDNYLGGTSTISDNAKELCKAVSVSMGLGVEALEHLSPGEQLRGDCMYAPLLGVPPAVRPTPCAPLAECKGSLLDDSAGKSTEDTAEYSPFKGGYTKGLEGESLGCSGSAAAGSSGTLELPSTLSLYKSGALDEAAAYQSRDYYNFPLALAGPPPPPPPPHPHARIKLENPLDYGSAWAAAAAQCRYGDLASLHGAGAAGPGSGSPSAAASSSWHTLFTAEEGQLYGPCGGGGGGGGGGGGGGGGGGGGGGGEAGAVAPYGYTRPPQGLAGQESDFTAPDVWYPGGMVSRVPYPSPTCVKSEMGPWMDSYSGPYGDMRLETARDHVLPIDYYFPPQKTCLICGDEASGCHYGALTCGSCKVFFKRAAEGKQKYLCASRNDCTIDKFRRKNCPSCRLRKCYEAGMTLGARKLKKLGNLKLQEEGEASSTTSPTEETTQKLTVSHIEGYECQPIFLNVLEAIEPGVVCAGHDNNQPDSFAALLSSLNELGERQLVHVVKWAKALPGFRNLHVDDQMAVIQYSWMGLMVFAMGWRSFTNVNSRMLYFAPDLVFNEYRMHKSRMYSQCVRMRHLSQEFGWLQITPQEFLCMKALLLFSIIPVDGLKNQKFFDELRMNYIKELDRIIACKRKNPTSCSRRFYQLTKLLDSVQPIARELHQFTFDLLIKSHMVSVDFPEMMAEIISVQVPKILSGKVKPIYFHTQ
Method: Cell Culture, Transfection, and Reporter Gene Assay. The human prostate cancer cell lines, LNCaP, PC-3, and DU145, and non-prostate cancer cell line COS-1 were maintained in RPMI or Dulbecco's modified Eagle's medium (DMEM) (Life Technologies) supplemented with 10% fetal bovine serum (FBS). Transfections and luciferase (Luc) assays were performed as previously described (Miyamoto, H., Yeh, S., Wilding, G. & Chang, C. (1998) Proc. Natl. Acad. Sci. USA 95, 7379-7384; Miyamoto, H., Rahman, M., Takatera, H., Kang, H.-Y., Yeh, S., Chang, H.-C., Nishimura, K., Fujimoto, N. & Chang, C. (2002) J. Biol. Chem. 277, 4609-4617). Briefly, cells seeded to reach a density of 50-60% confluence in 12 well tissue culture plates were transfected with 1.5 μg of DNA according to “SuperFect transfection” instructions (Qiagen). After 2-3 h incubation, cells were treated with medium supplemented with charcoal-stripped FBS containing either ethanol or ligands for 24 h. The cells were then harvested and whole cell extracts were used for Luc assay. The Luc activity was determined using a Dual-Luciferase Reporter Assay System (Promega) and luminometer.
Effect of ADEK on AR Transcription. […] (set as 100%). Values were obtained from the mean±SD of at least three determinations.

CC(=O)O[C@H]1C=C[C@@]2(C)C(=CC[C@@H]3[C@@H]2CC[C@@]2(C)[C@H]3CCC23OCCO3)C1 [ADEK, 3β-acetoxy-17,17-ethylenedioxyandrosta-1,5-diene]
effect on LNCaP cell growth, DHT alone or compound with DHT (in words) (LNCaP cells; 1 nM DHT, 1 μM compound in presence of DHT): antagonized this DHT effect | effect on LNCaP cell growth in the absence of androgen (in words) (LNCaP cells; 1 μM compound, no DHT): marginally increased growth | progesterone activity (in words) [1]: no significant | repression of Adiol-induced AR transcription (wild-type AR): about 43%
